Measured values as given in the supplement of paper PMC10307832.

Legend:
Assay in all cases: relative viability (nuclei count vs DMSO), 5 days (fraction); higher = more cells survive
[1] = compound: COc1cc2nccc(Oc3ccc(NC(=O)C4(C(=O)Nc5ccc(F)cc5)CC4)cc3)c2cc1OC [Cabozantinib] + COc1cccc2cc(-c3nc([C@H]4CC[C@H](C(=O)O)CC4)n4ncnc(N)c34)[nH]c12 [OSI-027] (partner 0.5 µM)
Procedure, shortened: (§1)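 After 5 days of treatment, lung cancer cells in 1536-well plates were fixed and stained in a single step (final 0.05% Triton X-100, 1% formaldehyde, 1 ug/ml Hoechst) and their nuclei counted on 4× images. Treatment had been applied by pin tool the day after seeding as one drug alone or as a fixed anchor-drug dose with five library-drug doses (not always all listed) in √10 steps. Relative viability is the nuclei count of treated wells divided by that of vehicle wells, and values are medians of duplicate plates.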

[2] = compound: O[C@@H](COc1cccc2ncccc12)CN1CCN([C@@H]2c3ccccc3[C@@H]3[C@H](c4ccccc42)C3(F)F)CC1 [Zosuquidar] + Cc1nc(NC(=O)N2CCC[C@H]2C(N)=O)sc1-c1ccnc(C(C)(C)C(F)(F)F)c1 [Alpelisib] (partner 2 µM)
Procedure, shortened: as §1

[3] = compound: C1=CC(=CC=C1NC(=S)NNC2=C(C=C(C=C2[N+](=O)[O-])C(F)(F)F)[N+](=O)[O-])F [Kobe2602] + COc1cccc2cc(-c3nc([C@H]4CC[C@H](C(=O)O)CC4)n4ncnc(N)c34)[nH]c12 [OSI-027] (partner 0.5 µM)
Procedure, shortened: as §1

[4] = compound: C1=CC(=CC=C1NC(=S)NNC2=C(C=C(C=C2[N+](=O)[O-])C(F)(F)F)[N+](=O)[O-])F [Kobe2602] + O=C(CCCCCCC(=O)Nc1ccccc1)NO [Vorinostat] (partner 1 µM)
Procedure, shortened: as §1

Q: Which relative viability ([1]; first compound 0.02 µM) does the source give for SK-MES-1 here?
A: 0.542

Q: And the relative viability ([1]; first compound 0.06325 µM)?
A: 0.718

Q: What about the relative viability ([1]; first compound 0.2 µM) of the same cell line?
A: 0.649

Q: What about the relative viability ([1]; first compound 0.6325 µM) of the same cell line?
A: 0.665

Q: What about the relative viability ([1]; first compound 2 µM) of the same cell line?
A: 0.512

Q: And the relative viability ([2]; first compound 0.01 µM)?
A: 0.876

Q: What about the relative viability ([2]; first compound 0.03162 µM) of the same cell line?
A: 0.95

Q: And the relative viability ([2]; first compound 0.1 µM)?
A: 0.692

Q: And the relative viability ([2]; first compound 0.3162 µM)?
A: 1.07

Q: And the relative viability ([2]; first compound 1 µM)?
A: 0.987

Q: What about the relative viability ([3]; first compound 0.2 µM) of the same cell line?
A: 0.591

Q: And the relative viability ([3]; first compound 0.6325 µM)?
A: 0.637

Q: And the relative viability ([3]; first compound 2 µM)?
A: 0.488

Q: And the relative viability ([3]; first compound 6.325 µM)?
A: 0.642

Q: And the relative viability ([3]; first compound 20 µM)?
A: 0.226

Q: And the relative viability ([4]; first compound 0.2 µM)?
A: 1.03

Q: And the relative viability ([4]; first compound 0.6325 µM)?
A: 1.11

Q: What about the relative viability ([4]; first compound 2 µM) of the same cell line?
A: 1.01

Q: And the relative viability ([4]; first compound 6.325 µM)?
A: 0.97

Q: And the relative viability ([4]; first compound 20 µM)?
A: 0.585

Q: Which relative viability ([1]; first compound 0.02 µM) does the source give for HCC-366 here?
A: 0.753

Q: What about the relative viability ([1]; first compound 0.06325 µM) of the same cell line?
A: 1.03

Q: And the relative viability ([1]; first compound 0.2 µM)?
A: 0.951

Q: And the relative viability ([1]; first compound 0.6325 µM)?
A: 0.795

Q: What about the relative viability ([1]; first compound 2 µM) of the same cell line?
A: 0.778

Q: What about the relative viability ([2]; first compound 0.01 µM) of the same cell line?
A: 0.519

Q: And the relative viability ([2]; first compound 0.03162 µM)?
A: 0.449

Q: What about the relative viability ([2]; first compound 0.1 µM) of the same cell line?
A: 0.337

Q: And the relative viability ([2]; first compound 0.3162 µM)?
A: 0.438

Q: And the relative viability ([2]; first compound 1 µM)?
A: 0.401

Q: And the relative viability ([3]; first compound 0.2 µM)?
A: 0.727

Q: What about the relative viability ([3]; first compound 0.6325 µM) of the same cell line?
A: 0.975

Q: And the relative viability ([3]; first compound 2 µM)?
A: 0.886

Q: What about the relative viability ([3]; first compound 6.325 µM) of the same cell line?
A: 0.847

Q: What about the relative viability ([3]; first compound 20 µM) of the same cell line?
A: 0.894

Q: And the relative viability ([4]; first compound 0.2 µM)?
A: 0.311

Q: What about the relative viability ([4]; first compound 0.6325 µM) of the same cell line?
A: 0.357

Q: And the relative viability ([4]; first compound 2 µM)?
A: 0.329

Q: What about the relative viability ([4]; first compound 6.325 µM) of the same cell line?
A: 0.273

Q: What about the relative viability ([4]; first compound 20 µM) of the same cell line?
A: 0.296

Q: NCI-H3122 was tested. Which relative viability ([1]; first compound 0.02 µM) did it give?
A: 0.97

Q: And the relative viability ([1]; first compound 0.06325 µM)?
A: 0.963

Q: What about the relative viability ([1]; first compound 0.2 µM) of the same cell line?
A: 1.07

Q: And the relative viability ([1]; first compound 0.6325 µM)?
A: 1.06

Q: What about the relative viability ([1]; first compound 2 µM) of the same cell line?
A: 1.4

Q: And the relative viability ([2]; first compound 0.01 µM)?
A: 0.714

Q: What about the relative viability ([2]; first compound 0.03162 µM) of the same cell line?
A: 0.769

Q: And the relative viability ([2]; first compound 0.1 µM)?
A: 0.679

Q: What about the relative viability ([2]; first compound 0.3162 µM) of the same cell line?
A: 0.764

Q: And the relative viability ([2]; first compound 1 µM)?
A: 0.763

Q: And the relative viability ([3]; first compound 0.2 µM)?
A: 0.902

Q: What about the relative viability ([3]; first compound 0.6325 µM) of the same cell line?
A: 0.903

Q: And the relative viability ([3]; first compound 2 µM)?
A: 0.957

Q: And the relative viability ([3]; first compound 6.325 µM)?
A: 0.853

Q: And the relative viability ([3]; first compound 20 µM)?
A: 1.12

Q: And the relative viability ([4]; first compound 0.2 µM)?
A: 0.986

Q: And the relative viability ([4]; first compound 0.6325 µM)?
A: 0.701

Q: What about the relative viability ([4]; first compound 2 µM) of the same cell line?
A: 0.979

Q: What about the relative viability ([4]; first compound 6.325 µM) of the same cell line?
A: 0.855

Q: And the relative viability ([4]; first compound 20 µM)?
A: 1.06

Q: COR-L 105 was tested. Which relative viability ([1]; first compound 0.02 µM) did it give?
A: 0.682

Q: What about the relative viability ([1]; first compound 0.06325 µM) of the same cell line?
A: 0.785

Q: What about the relative viability ([1]; first compound 0.6325 µM) of the same cell line?
A: 0.667

Q: What about the relative viability ([1]; first compound 2 µM) of the same cell line?
A: 0.71

Q: And the relative viability ([2]; first compound 0.01 µM)?
A: 1.07

Q: And the relative viability ([2]; first compound 0.03162 µM)?
A: 0.852

Q: What about the relative viability ([2]; first compound 0.1 µM) of the same cell line?
A: 1.11

Q: What about the relative viability ([2]; first compound 0.3162 µM) of the same cell line?
A: 1.07

Q: What about the relative viability ([2]; first compound 1 µM) of the same cell line?
A: 1.12

Q: What about the relative viability ([3]; first compound 0.2 µM) of the same cell line?
A: 0.631

Q: And the relative viability ([3]; first compound 0.6325 µM)?
A: 0.784

Q: And the relative viability ([3]; first compound 2 µM)?
A: 0.623

Q: What about the relative viability ([3]; first compound 6.325 µM) of the same cell line?
A: 0.82

Q: What about the relative viability ([3]; first compound 20 µM) of the same cell line?
A: 0.843

Q: What about the relative viability ([4]; first compound 0.2 µM) of the same cell line?
A: 0.786

Q: And the relative viability ([4]; first compound 0.6325 µM)?
A: 0.932

Q: And the relative viability ([4]; first compound 2 µM)?
A: 0.647

Q: And the relative viability ([4]; first compound 6.325 µM)?
A: 0.774

Q: What about the relative viability ([4]; first compound 20 µM) of the same cell line?
A: 0.705
